Source: article PMC9867837 (Cancer letters, 2022)

How the values were obtained:
[1] = tested on: MDA-MB-231 cells; experiment: Clonogenic survival assay; assay type: cell-based, human; conditions: 0.3–2 μM H182, treated once
Description: These studies were performed as previously reported. Details are presented in Supplementary Information, “Methods”.
These studies were performed as previously reported . For the clonogenic survival assay, briefly, cells were seeded as single-cell (500 cells per well) in 6 -well plates, then untreated (DMSO control) or treated once the following day with H182 and allowed to grow until large colonies were visible, which were stained with crystal violet for 4 h and imaged with a FluorChem imaging system (Protein Simple, Santa Clara, CA).
For the soft-agar assay, briefly, each well contained a bottom layer of 1 ml of 1% agarose in complete DMEM and a top layer of 1 ml of 0.5% agarose in complete DMEM containing 500 cells. After the upper agar layer containing cells solidified, 1 ml culture medium containing H182 (0-2 µM) or DMSO (control) was overlaid, and the cultures were maintained at 37 °C in the incubator, with the medium replacement every 3-4 days with fresh medium that contains the inhibitor or not. Cells were allowed to culture for 3-4 weeks until large colonies were visible under microscope. The colonies were stained with crystal violet and […]
1.2.8. Confocal microscopy studies
4 cells in 1 ml) in logarithmic
These studies were performed as previously reported. […]

[2] = tested on: MDA-MB-231 cells; experiment: Immunoblotting for cleaved PARP and caspase 3; assay type: cell-based, human; conditions: 1 μM for 0–24 h or increasing concentration for 2 h
Description: These studies were performed as previously described. Details are presented in Supplementary Information, “Methods”.
Aberrantly-active Stat3 promotes tumor cell growth and proliferation, survival, migration, invasion, and metastasis.
These studies were performed as previously described [1 -3] . Briefly, snap-frozen tumor tissues or cultured cells treated or not were harvested and whole-cell or tissue lysates were prepared in radioimmunoprecipitation assay (RIPA) buffer. Samples of equal total protein were subjected to SDS - PAGE and immunoblotting analysis. Primary antibodies used were anti- Stat3, pY705-Stat3, pS727Stat3, […]
Akt, pT202/Y204Erk1/2 (p44/42), Erk1/2, PARP , caspase 3, c-Myc, survivin, VEGF, β-actin, α/β-tubulin, and GAPDH. For the studies of the effects of cell density and confluence on pY705Stat3, cells were seeded […] in culture dishes. The next day, cells were untreated (DMSO control, […]
0.1%) or treated at the same time with 1 or 2 µM H182, allowed to incubate for the indicated time and then harvested for whole-cell lysate preparation and SDS -PAGE / immunoblotting analy sis. […]
concentration of H182 for 6 h and then treated with 0- 100 nM docetaxel or 0-20 µM cisplatin for a total of 72 h. Viable cell numbers were assessed by a CyQuant cell proliferation kit according to the manufacturer’s instructions (Thermo/Life Technologies Corp, Carlsbad, CA). […]

[3] = Human hepatocyte stability; assay type: in vitro ADME
Description: The in vivo activity of a compound is influenced by its overall bioavailability, which is also driven by parameters, such as solubility, permeability, and metabolism. […] These values are all above the industry cut-off of 60 μg/ml. […] It has CLint in human hepatocytes of 16 μL/min/10^6 cells, which falls into moderate stability range [43].

[4] = target: T1, purified recombinant Stat3 (rStat3) (Homo sapiens, UniProt P40763); experiment: Isothermal titration calorimetry (ITC); assay type: binding
T1 construct: made in house; host or cells: E. coli BL21(DE3)
Description: The ITC experiment was carried out as previously described. Details are provided in Supplementary Information, “Methods”. […]
1.2.10. Isothermal titration calorimetry (ITC)
The ITC experiment was carried out as previously described with some modification using Malvern Panalytical MicroCal PEAQ-ITC (United Kingdom). Studies were done at 25 °C. Briefly, H182, previously suspended in 100 % DMSO were diluted in 20 mM HEPES, 150 mM KCl buffer so the final DMSO was 5 %. To avoid buffer mismatch, Stat3 in HEPES buffer was diluted in HEPES buffer with 5% DMSO final concentration. Three hundred microliter (300 μL) aliquots of 3.0 μM Stat3 w ere placed in the cell and titrated with 250 μM H182. Titrations took place by injecting 2 μL H182 in a 2.5 min injection for the titration peak to return to the baseline. The K D was calculated using the MicroCal PEAQ-ITC analysis […]
software and Prism GraphPad software (San Diego, CA), using the one-site model. Control experiments were carried out by titration H182 into buffer, buffer into Stat3, and buffer into buffer. […]
DMSO (control) was added, and then immediately, cells were imaged with a Canon Powershot A640 digital camera under a phase contrast with the Zeiss Axiovert 200 inverted microscope at 10X magnification and noted as the zero time-point. Following culture for 22 h to allow cells to migrate into the denuded area, the culture was then imaged again at the same field that was marked on the plate.
1.2.12. Annexin V binding/apoptosis and flow cytometric analysis
For apoptosis analysis, annexin V/propidium iodide (PI) staining was performed. Briefly, cells in culture and untreated (DMSO, control) or treated with H182 were harvested and stained with FITC -annexin V (Apoptosis Detection Kit), according to manufacturer’s instructions (BD Biosciences, San Jose, CA). […]
1.2.13. Assessment of Physicochemical Properties
Solubility, human (HLM) and mouse liver microsomal (MLM), and plasma stability studies were performed by Eurofins Cerep Panlabs and Eurofin Discovery Services (www.eurofins.com/PharmaDiscovery), while

T1 sequence (P40763 127-711): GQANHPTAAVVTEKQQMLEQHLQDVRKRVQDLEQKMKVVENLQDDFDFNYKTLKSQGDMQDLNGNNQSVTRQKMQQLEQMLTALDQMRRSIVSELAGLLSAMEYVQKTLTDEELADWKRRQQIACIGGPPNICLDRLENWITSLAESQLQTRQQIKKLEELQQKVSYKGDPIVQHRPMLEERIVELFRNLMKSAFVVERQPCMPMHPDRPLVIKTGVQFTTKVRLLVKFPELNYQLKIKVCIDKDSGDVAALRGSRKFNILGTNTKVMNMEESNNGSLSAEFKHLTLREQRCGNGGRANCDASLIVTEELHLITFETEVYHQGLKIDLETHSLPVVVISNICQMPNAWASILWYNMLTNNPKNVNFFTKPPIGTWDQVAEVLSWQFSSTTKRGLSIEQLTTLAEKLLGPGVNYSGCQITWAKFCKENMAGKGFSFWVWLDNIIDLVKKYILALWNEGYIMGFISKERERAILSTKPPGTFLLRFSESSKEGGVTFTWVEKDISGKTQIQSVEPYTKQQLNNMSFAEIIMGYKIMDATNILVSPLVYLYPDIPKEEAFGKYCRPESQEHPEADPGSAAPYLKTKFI

O=C([C@H]1CCN1S(=O)(=O)c1c(F)c(F)c(F)c(F)c1F)N(Cc1ccc(C2CCCCC2)cn1)c1ccc2c(=O)[nH]ncc2c1 [Compound H182]
Effect on anchorage-dependent colony formation [1]: potently and dose-dependently inhibited | Cleaved PARP and caspase 3 [2]: moderate levels | Metabolic Stability Human Hepatocytes CLint [3]: 14.6 μL/min/10^6 cells | half-life ([3]; hepatocytes, read-out: Human Hepatocytes t1/2): 1.13 h | hepatocyte CLint ([3]; hepatocytes, read-out: Metabolic Stability Human Hepatocytes CLint): 16 µL/min/1e6 cells | ΔG [4]: -7.79 kcal/mol | ΔH [4]: -4.16 kcal/mol | −TΔS [4]: -3.63 kcal/mol | Kd ([4]; one-site model, 25 °C): 1.97 µM
